Assay results from patent publication US8008009B2, “Method for ProNGF assay for in vitro diagnosis of cancer in particular breast, thyroid or lung cancer and therapeutic use of ProNGF” (Biomerieux, priority 2006, dated 2011).

Key:
Assay type in all cases: cell-based, human
[1] = test system: MCF-7 cells; assay: Boyden chamber (Transwell) migration test; settings: 200 ng/mL in lower chamber, starving medium, 24 h, compared with starving medium alone
Description: (§1) A “starving” medium was used, “starving” denoting a medium identical to the complete medium but without serum and supplemented with 2 μg/mL of fibronectin and 30 μg/mL of transferrin. For the various biological activity measurements, the various test molecules (ProNGF, NGF and galardin) are added to this starving medium. During the treatments, the media are renewed every 24 hours.
(§2) The migration and invasion tests are carried out as previously described by Bracke et al. (1999, J Natl Cancer Inst, 91: 354-359). The protocols for using Boyden chambers and for invasion in collagen gel are described below.
12-well plates containing Transwells® with a pore diameter of 12 μm are equilibrated with starving medium and placed at 37° C. under 5% CO2 for 2 hours. The medium is then drawn off and replaced, in the lower chamber, by starving medium with the various test molecules, whereas, in the upper chamber, 40 000 cells are seeded in starving medium alone. […] Each condition is carried out in duplicate; a minimum of 40 fields is counted for each condition. […]
The effects of ProNGF on the migration of mammary epithelial cells were comprehended by means of tests in Boyden chambers (Transwell®). Each condition was carried out in duplicate and a minimum of 40 fields was counted. […] The cells having crossed the Transwell® were then counted. *p<0.05, comparison with the starving medium alone condition.

[2] = test system: MCF-7 cells; assay: Collagen type I gel invasion test; settings: 200 ng/mL, starving medium, 24 h
Description: as §1, §2
The collagen type I gel is prepared in the following way: 2.1 mL of collagen Type I, 0.8 mL of EMEM (10×), 4.6 mL of PBS, 0.8 mL of NaHCO3 at 0.25 M and 0.15 mL of 1 M NaOH. 1.25 mL are deposited in the wells of a 6-well plate. Once the gel has solidified, 100 000 cells are seeded with starving medium and the various test molecules for 24 hours. The cells are subsequently counted and the invasion index is determined (number of deep cells related to the number of cells at the surface). Each condition is carried out in triplicate and a minimum of 45 fields is counted per condition.
The invasive capacity of the ProNGF-stimulated MCF-7 cells was tested in collagen type I gel. Each condition is carried out in triplicate and a minimum of 45 fields is counted per condition. […]

[3] = test system: ProNGF; assay: Anti-ProNGF Western blotting after siRNA transfection, densitometry; settings: MCF-7 cells, 3 μg siRNA
Description: The MCF-7 cells are passaged 3-4 days before transfection, so as to reach 50% confluence at the time of the experiment. Two million cells are taken up in 100 μl of Nucleofector Kit V solution and 3 μg of siRNA are added. The transfection program used on the Nucleofector is E-14. Anti-ProNGF Western blotting is carried out on the lysates recovered after 24 hours or after 48 hours, according to the protocol described in point 2.1. The relative amount of ProNGF detected by blotting is evaluated with the QuantityOne software (Bio-Rad), related to the equal loading (actin) and presented in the form of a histogram where 100% is assigned to the siGFP control condition.
The MCF-7 cells were transfected with 3 μg interfering RNA (siRNA) directed against GFP (siGFP) or against ProNGF (siProNGF). After 24 to 48 h of culture, the cells were lysed and ProNGF Western blotting was carried out. The relative amount of ProNGF detected by blotting was evaluated with the QuantityOne software (Bio-Rad) related to the actin equal loading and presented in the form of a histogram where 100% is assigned to the siGFP control condition (FIG. 10). […] Densitometric analysis made it possible to evaluate this decrease at 59% after 24 h of transfection.

[4] = test system: MDA-MB-231 cells; assay: Cell proliferation (cell count) after siRNA transfection; settings: 3 μg siRNA, EMEM culture medium, counted at 24, 48 and 96 h; Mock and siGFP controls double between 24 and 48 h
Description: The interfering RNA (siRNA) transfection experiments were carried out with the Cell Line Nucleofector kit from Amaxa and the corresponding electroporation apparatus. This system makes it possible to obtain a high efficiency of gene transfer to the nucleus (nucleofection).
The MDA-MB-231 cells are passaged 2 days before the transfection, so as to reach 80% confluence at the time of the experiment. The cells to be transfected are trypsinized and then counted. The cell pellet (1 million cells) is taken up in 100 μl of Nucleofector Kit V solution and 3 μg of siRNA are added. This cell suspension is transferred into an electroporation cuvette, placed in the Amaxa apparatus and electroporated according to the X-13 program. The cells are subsequently put back in culture in a well of a 6-well plate for 24-72 h. The cell proliferation is followed over time and the cells are counted at regular time intervals. Anti-Sortilin Western blotting is carried out on the lysates recovered at various times, according to the protocol described in the previous paragraph, “Expression of Sortilin”.
MDA-MB-231 cells maintained in the EMEM culture medium were transfected either with culture medium alone (Mock), or with an interfering RNA directed against the GFP protein (siGFP) or with an interfering RNA directed against Sortilin (siSORT).

[5] = test system: Sortilin; assay: Anti-Sortilin Western blotting after siRNA transfection; settings: MDA-MB-231 cells transfected with siRNA
Description: For the Western blotting, the membranes are saturated with 4% bovine serum albumin in a solution of TBS (Tris Buffered Saline) 0.1% Tween 20 (17.54 g NaCl, 2.42 g Tris, 2 mL tween 20, QS 2 L, pH adjusted to 7.4) at ambient temperature for 2 hours. After saturation, the membranes are incubated overnight at 4° C. with the various primary antibodies: anti-Sortilin (BD612101 from BD Biosciences) at 1:2000, anti-Actin (A-2066 from Sigma) at 1:5000 in the saturation solution. After rinsing with TBS 0.1% Tween 20, the membranes are incubated for 1 hour at ambient temperature with an anti-rabbit secondary antibody (A-1949 from Sigma, France) coupled to horseradish peroxidase, at 1:20000 in the saturation solution. After rinsing, visualization is carried out with the ECL system (Pierce Interchim, France) according to the recommended data for use.
The MDA-MB-231 cells are passaged 2 days before the transfection, so as to reach 80% confluence at the time of the experiment. The cells to be transfected are trypsinized and then counted. The cell pellet (1 million cells) is taken up in 100 μl of Nucleofector Kit V solution and 3 μg of siRNA are added. This cell suspension is transferred into an electroporation cuvette, placed in the Amaxa apparatus and electroporated according to the X-13 program. […] The cell proliferation is followed over time and the cells are counted at regular time intervals. […]

Substance: NGF: recombinant nerve growth factor obtained from R&D systems
- cell migration [1]: increase their ability to migrate, in a similar manner to NGF

Substance: ProNGF: human recombinant nerve growth factor precursor sold by SCIL proteins
- cell migration [1]: increase their ability to migrate
- invasion (invasion index) [2]: stimulates MCF-7 invasion

Substance: siProNGF: interfering RNA directed against ProNGF; double-stranded RNA of SEQ ID No.5 and SEQ ID No.6 (chain 1 CAGUGUAUUCAAACAGUAUNN; chain 2 GUACUGUUUGAAUACACUGNN; listed as RNA, chemistry not given here)
- expression of the ProNGF protein (photographs of the blots) ([3]; 24 to 48 h of culture): decreases the expression of the ProNGF protein
- decrease in expression of ProNGF (densitometric analysis) ([3]; after 24 h of transfection, 100% assigned to siGFP control, related to actin): 59%

Substance: siSORT: interfering RNA which decreases the expression of Sortilin; double-stranded RNA of SEQ ID No.3 and SEQ ID No.4 (chain 1 GGUGGUGUUAACAGCAGAGNN; chain 2 CUCUGCUGUUAACACCACCNN; listed as RNA, chemistry not given here)
- number of MDA-MB-231 cells in culture over time [4]: does not increase over time
- level of expression of the Sortilin protein [5]: decreased the level of expression of the Sortilin protein
